Consider 34 compounds from US20210300943A1, “OGA INHIBITOR COMPOUNDS” (Janssen Pharmaceutica NV, priority 2018, published 2021).

The Emax is the greatest response seen or fitted, relative to the assay's reference.

In this experiment the target is T1, recombinant human Meningioma Expressed Antigen 5 (MGEA5), also referred to as O-GlcNAcase (OGA) (Homo sapiens, UniProt O60502).
T1 construct: Full length OGA enzyme was purchased at OnGene (cat #TP322411); purchased OnGene (so in the source)
T1 sequence (O60502 1-916): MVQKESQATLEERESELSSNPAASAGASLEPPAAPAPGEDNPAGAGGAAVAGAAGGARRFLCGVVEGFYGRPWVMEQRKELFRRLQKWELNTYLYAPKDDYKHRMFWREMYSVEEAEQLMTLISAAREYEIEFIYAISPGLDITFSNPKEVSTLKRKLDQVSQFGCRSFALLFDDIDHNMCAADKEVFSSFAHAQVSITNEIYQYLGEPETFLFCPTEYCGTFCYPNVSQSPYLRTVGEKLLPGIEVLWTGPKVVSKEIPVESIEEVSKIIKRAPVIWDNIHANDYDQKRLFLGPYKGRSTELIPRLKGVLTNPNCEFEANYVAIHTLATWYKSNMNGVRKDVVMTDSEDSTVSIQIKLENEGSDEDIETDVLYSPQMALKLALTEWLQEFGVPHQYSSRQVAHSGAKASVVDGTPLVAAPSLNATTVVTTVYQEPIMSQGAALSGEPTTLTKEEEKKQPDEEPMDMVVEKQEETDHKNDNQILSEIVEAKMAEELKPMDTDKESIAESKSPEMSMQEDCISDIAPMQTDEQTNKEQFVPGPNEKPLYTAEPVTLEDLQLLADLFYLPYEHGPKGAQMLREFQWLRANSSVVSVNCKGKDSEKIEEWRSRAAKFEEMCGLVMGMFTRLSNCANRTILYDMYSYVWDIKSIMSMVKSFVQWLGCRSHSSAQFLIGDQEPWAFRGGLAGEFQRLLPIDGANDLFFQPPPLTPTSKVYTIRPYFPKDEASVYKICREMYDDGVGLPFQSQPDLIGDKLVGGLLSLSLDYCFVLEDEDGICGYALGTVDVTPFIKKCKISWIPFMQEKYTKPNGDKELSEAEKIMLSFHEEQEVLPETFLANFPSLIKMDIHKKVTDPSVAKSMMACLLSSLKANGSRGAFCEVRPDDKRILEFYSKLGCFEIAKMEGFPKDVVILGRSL
Kind of experiment: OGA biochemical assay (inhibition of FM-GlcNAc hydrolysis, fluorescence). Particulars: for Enzymatic Emax (%) / Emax: maximal effect; for IC50: read-out: Enzymatic hOGA, pIC50 (converted); for Emax: read-out: Enzymatic Emax (%). An excerpt: The assay is based on the inhibition of the hydrolysis of fluorescein mono-β-D-N-Acetyl-Glucosamine (FM-GlcNAc) (Mariappa et al. 2015, Biochem J 470:255) by the recombinant human Meningioma Expressed Antigen 5 (MGEA5), also referred to as O-GlcNAcase (OGA). The hydrolysis FM-GlcNAc (Marker Gene technologies, cat #M1485) results in the formation of β-D-N-glucosamineacetate and fluorescein. The fluorescence of the latter can be measured at excitation wavelength 485 nm and emission wavelength 538 nm. An increase in enzyme activity results in an increase in fluorescence signal. Full length OGA enzyme was purchased at OnGene (cat #TP322411). The enzyme was stored in 25 mM Tris.HCl, pH 7.3, 100 mM glycine, 10% glycerol at −20° C. Thiamet G and GlcNAcStatin were tested as reference compounds (Yuzwa et al. 2008 Nature Chemical Biology 4:483; Yuzwa et al. 2012 Nature Chemical Biology 8:393). The assay was performed in 200 mM Citrate/phosphate buffer supplemented with 0.005% Tween-20. 35.6 g Na2HPO42H2O (Sigma, #C0759) were dissolved in 1 L water to obtain a 200 mM solution. 19.2 g citric acid (Merck, #1.06580) was dissolved in 1 L water to obtain a 100 mM solution. pH of the sodiumphosphate solution was adjusted with the citric acid solution to 7.2. The buffer to stop the reaction consists of a 500 mM Carbonate buffer, pH 11.0. 734 mg FM-GlcNAc were dissolved in 5.48 mL DMSO to obtain a 250 mM solution and was stored at −20° C. OGA was used at a 2 nM concentration and FM-GlcNAc at a 100 uM final concentration. Dilutions were prepared in assay buffer.
50 nl of a compound dissolved in DMSO was dispensed on Black Proxiplate TM 384 Plus Assay plates (Perkin Elmer, #6008269) and 3 μl fl-OGA enzyme mix added subsequently. Plates were pre-incubated for 60 min at room temperature and then 2 μl FM-GlcNAc substrate mix added. […] Plates were briefly centrifuged for 1 min at 1000 rpm and incubate at room temperature for 6 h. To stop the reaction 5 μl STOP buffer were added and plates centrifuge again 1 min at 1000 rpm. Fluorescence was quantified in the Thermo Scientific Fluoroskan Ascent or the PerkinElmer EnVision with excitation wavelength 485 nm and emission wavelength 538 nm.
For analysis a best-fit curve is fitted by a minimum sum of squares method. From this an IC50 value and Hill coefficient was obtained. High control (no inhibitor) and low control (saturating concentrations of standard inhibitor) were used to define the minimum and maximum values.

Take `Cc1cc(NCC2CCCN(C(C)c3ccc4c(n3)OCCO4)C2)cc(C(F)(F)F)n1` (single isomer, unassigned) [Product 35]: the “Enzymatic Emax (%)” value was 88% and the IC50 was 2510 nM.

Consider `Cc1cc([C@@H]2CCCN([C@@H](C)c3cc4c(cc3F)OCCO4)C2)cc(C(F)(F)F)n1` (single isomer, unassigned) [Product 143], for which the Emax came to 87% and the IC50 was 2510 nM.

As for `Cc1cc(C[C@H]2CCCN([C@H](C)c3cc4c(cc3F)OCCO4)C2)cc(C)n1` (single isomer, unassigned) [Product 41], the Emax stood at 94% and the IC50 was 1000 nM.

On to `Cc1cc(C[C@H]2CCCN(Cc3ccc4c(n3)OCC(=O)N4)C2)cc(C)n1` [Product 54], for which the Emax turned out to be 78% and the IC50 was 3160 nM.

In the case of `Cc1cc(C[C@H]2CCCN(C(C)c3ccc4c(n3)OCC(=O)N4C)C2)cc(C)n1` (mixture of isomers) [Product 62], the Emax amounted to 77% and the IC50 was 3160 nM.

As to `Cc1cc([C@H]2CCCN([C@H](C)c3cc4c(cc3F)OCCO4)C2)cc(C(F)(F)F)n1` (single isomer, unassigned) [Product 142], the Emax came to 52%.

On to `Cc1cc([C@H]2CCCN([C@@H](C)c3ccc4c(c3)OCC4)C2)cc(C)n1` (single isomer, unassigned) [Product 5], for which the Emax is 102% and the IC50 is 3.16 nM.

Turning to `COc1cc(C[C@H]2CCCN([C@@H](C)c3ccc4c(n3)OCCO4)C2)cc(C)n1` [Product 65], the maximal response (Emax) amounted to 102% and the IC50 is 200 nM.

As to `CC(c1ccc2c(n1)OCCO2)N1CCCC(Oc2ncc(F)cc2F)C1` (stereo not shown) [Product 134], the Emax turned out to be 96% and the IC50 is 158 nM.

In the case of `Cc1cc(NCC2CCCN(C(C)c3cc4c(cc3F)OCCO4)C2)cc(C)n1` (stereo not shown) [Product 37], the Emax stood at 102% and the IC50 is 5.01 nM.

Take `Cc1cc(O[C@@H]2CCCN([C@@H](C)c3cnc4c(c3)OCCN4)C2)cc(C(F)(F)F)n1` [Product 17]: the Emax is 99% and the IC50 is 79.4 nM.

Regarding `Cc1cc(NCC2CCCN(C(C)c3ccc4c(n3)OCCO4)C2)cc(C(F)(F)F)n1` (single isomer, unassigned) [Product 34], the “Enzymatic Emax (%)” value is given as 100% and the IC50 is 200 nM.

For the compound `Cc1cc(C[C@H]2CCCN(C(C)c3ccc4c(n3)OCCO4)C2)cc(C)n1` (single isomer, unassigned) [Product 45], the Emax was 98% and the IC50 is 501 nM.

Turning to `Cc1cc(OC[C@@H]2CCCN(C(C)c3ccc4c(n3)OCCO4)C2)cc(C)n1` (mixture of isomers) [Product 20], the Emax turned out to be 98% and the IC50 is 316 nM.

Regarding `Cc1cc(C[C@H]2CCCN(Cc3cnc4c(c3)OCC(=O)N4C)C2)cc(C)n1` [Product 127], the Emax was determined as 10% and the IC50 is greater than 10000 nM.

Turning to `Cc1cc([C@@H]2CCCN([C@H](C)c3cc4c(cc3F)OCCO4)C2)cc(C(F)(F)F)n1` (single isomer, unassigned) [Product 141], the Emax worked out at 98% and the IC50 is 501 nM.

With `Cc1cc(C[C@H]2CCCN(C(C)c3cc4c(cc3C)OCCO4)C2)cc(C)n1` (mixture of isomers) [Product 126], the maximum response (Emax) came out at 1% and the IC50 is greater than 10000 nM.

Consider `Cc1cnc(C)c(C2CCCN(C(C)c3ccc4c(n3)OCCO4)C2)n1` (stereo not shown) [Product 12], for which the Emax came to 96% and the IC50 was 501 nM.

`Cc1cc(C[C@H]2CCCN(Cc3cnc4c(c3)OCCN4C)C2)cc(C)n1` [Product 53]: the Emax amounted to 94% and the IC50 was 794 nM.

As for `COc1cc(NC[C@@H]2CCCN(C(C)c3ccc4c(n3)OCCO4)C2)cc(C)n1` (single isomer, unassigned) [Product 28], the Emax is 99% and the IC50 was 1000 nM.

For `Cc1cc(C[C@H]2CCCN(Cc3cnc4c(c3)OCC(=O)N4)C2)cc(C)n1` [Product 55], the maximal response (Emax) was 90% and the IC50 is 1260 nM.

As to `Cc1cc(NC[C@H]2CCCN([C@H](C)c3ccc4c(n3)OCCO4)C2)cc(C(F)(F)F)n1` (single isomer, unassigned) [Product 32], the Emax came out at 99% and the IC50 was 398 nM.

For the compound `COc1cc(NCC2CCCN(C(C)c3cc4c(cc3F)OCCO4)C2)cc(C)n1` (stereo not shown) [Product 38], the Emax is 102% and the IC50 is 6.31 nM.

As for `COc1cc(NC[C@@H]2CCCN(C(C)c3ccc4c(n3)OCCO4)C2)cc(C)n1` (mixture of isomers) [Product 27], the Emax was 102% and the IC50 was 200 nM.

On to `Cc1cc([C@H]2CCCN([C@@H](C)c3cc4c(cc3F)OCCO4)C2)cc(C(F)(F)F)n1` (single isomer, unassigned) [Product 144], for which the Emax was found to be 99% and the IC50 was 3.16 nM.

Take `COc1cc(NC[C@H]2CCCN(C(C)c3ccc4c(n3)OCCO4)C2)cc(C)n1` (single isomer, unassigned) [Product 25]: the Emax worked out at 103% and the IC50 was 79.4 nM.

Regarding `Cc1cc(C[C@H]2CCCN(C(C)c3ccc4c(n3)OCC(=O)N4)C2)cc(C)n1` (single isomer, unassigned) [Product 60], the “Enzymatic Emax (%)” value worked out at 78% and the IC50 was 3160 nM.

As for `Cc1cc(C[C@H]2CCCN(C(C)c3cnc4c(c3)OCCN4)C2)cc(C)n1` (single isomer, unassigned) [Product 51], the Emax was found to be 101% and the IC50 is 200 nM.

On to `Cc1cc(C[C@H]2CCCN([C@@H](C)c3cnc4c(c3)OCCO4)C2)cc(C)n1` (single isomer, unassigned) [Product 131], for which the maximal effect (Emax) stood at 97% and the IC50 is 501 nM.

With `Cc1cc([C@@H]2CCCN([C@H](C)c3ccc4c(c3)OCC4)C2)cc(C)n1` (single isomer, unassigned) [Product 6], the Emax came out at 101% and the IC50 was 126 nM.

Turning to `Cc1cc(C[C@H]2CCCN(Cc3cc4c(cc3C)OCCO4)C2)cc(C)n1` [Product 39], the Emax came to 92% and the IC50 is 794 nM.

As to `COc1cc(NC[C@@H]2CCCN(C(C)c3ccc4c(n3)OCCO4)C2)cc(C)n1` (single isomer, unassigned) [Product 29], the “Enzymatic Emax (%)” value amounted to 97% and the IC50 was 79.4 nM.

In the case of `Cc1cc([C@H]2CCCN([C@H](C)c3ccc4c(c3)OCC4)C2)cc(C)n1` [Product 3], the Emax was found to be 97% and the IC50 is 794 nM.

As to `Cc1cc(C[C@H]2CCCN(C(C)c3ccc4c(c3)OCC(=O)N4)C2)cc(C)n1` (mixture of isomers) [Product 58], the Emax came to 102% and the IC50 was 126 nM.
